# Results reported in patent publication US20120196342A1, “Industrial Applications of A Novel Aldo/Keto Reductase Of Zymomonas Mobilis” (priority 2011, published 2012).
# Changes are numbered by the printed parent chain. Numbers in names are those of the source. Read-outs that look alike come from different tables or passages of the source.
# T1: recombinant ZMO0976 (Zymomonas mobilis, UniProt Q5NNW0)
# T1 sequence (Q5NNW0 1-340): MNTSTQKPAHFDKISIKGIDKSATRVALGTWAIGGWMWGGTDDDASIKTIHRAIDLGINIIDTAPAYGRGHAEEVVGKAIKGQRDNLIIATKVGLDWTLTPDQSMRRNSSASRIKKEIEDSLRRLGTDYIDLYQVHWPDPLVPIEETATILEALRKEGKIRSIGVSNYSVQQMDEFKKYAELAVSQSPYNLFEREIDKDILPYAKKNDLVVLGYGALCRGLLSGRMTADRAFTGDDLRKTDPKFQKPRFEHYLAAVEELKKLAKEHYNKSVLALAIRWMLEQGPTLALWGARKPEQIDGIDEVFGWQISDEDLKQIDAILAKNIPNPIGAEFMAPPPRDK
# B1: ZMO0976: 341 amino acid aldo/keto reductase of Z. mobilis ZM4, His-tagged, expressed in E. coli UT5600 (protein)
# chain: T1 sequence (Q5NNW0 1-340)
# modifications: His tag; sequence of aldo/keto reductase ZMO0976 (see Fig. 4A)
# notes: 341 amino acid aldo/keto reductase of Z. mobilis ZM4, His-tagged, expressed in E. coli UT5600
# B2: mZMO0976: mutated ZMO0976 from adapted strain A3, single arginine to cysteine mutation at residue 292 (C874T) (protein)
# chain: T1 sequence (Q5NNW0 1-340) with R292C
# modifications: His tag; sequence of aldo/keto reductase mZMO0976 (see Fig. 4B)
# Key:
# [1] = molecular target: T1, recombinant ZMO0976; test: Substrate and cofactor profile and Michaelis-Menten kinetics of recombinant ZMO0976; type: biochemical, Z. mobilis
# Method: (§1) E. coli cells were prepared for enzymatic assays using the procedure described in, for example, Akinterinwa, and Cirino, “Heterologous expression of D-xylulokinase from Pichia stipitis enables high levels of xylitol production by engineered Escherichia coli growing on xylose,” Metabolic Engineering 11(1): pp. 48-55. Briefly, cells were harvested by centrifugation at 5,000 g at 4° C. for 30 min. Cells were washed once with extraction buffer [10 mM Tris-HCl pH 7.5, 5 mM MgCl2, 1 mM dithothreitol (DTT) and 1 mM phenylmethylsulfonyl fluoride (PMSF) (Sigma-Aldrich, St. Louis, Mo.)]. Washed cell pellets were stored at −20° C. until use. Cell pellets were resuspended to an OD of 50 in equilibration buffer (50 mM Na2HPO4, 300 mM NaCl and 10 mM imidazole at pH 8 (Sigma-Aldrich, St. Louis, Mo.)) supplemented with 1 mM DTT and 1 mM PMSF, and sonicated (8 cycles of 10 s with 30 s cooling period). Cell debris was discarded after centrifugation at 16,000 g for 20 min at 4° C. Supernatant was used as cell-free extract (CFE) for enzymatic assays. Bradford Assay was used for estimation of protein concentration in the extract. His-tagged protein in the cell-free extract was purified at 4° C. using HIS-Select® HF Nickel Affinity Gel (Sigma-Aldrich, St. Louis, Mo.), which employs immobilized metal-ion affinity chromatography (IMAC). Manufacturer's protocol for large scale purification was followed. Briefly, 10 ml of cell-free extract was added to 1 ml of affinity gel in equilibration buffer. After overnight incubation, the gel was washed five times with equilibration buffer. The bound his-tagged protein was then eluted using 2 ml of elution buffer (50 mM Na2HPO4, 300 mM NaCl and 250 mM imidazole at pH 8). Imidazole was removed by overnight dialysis at 4° C. using extraction buffer as the dialysis solution.
# (§2) Cell-free extract for Z. mobilis was prepared as above except that extraction buffer was used for sonication and after which, cell debris were spun down at higher centrifugal force (53,300 g). All enzymatic assay reactions were carried out in a final volume of 200 μl on a microplate. NAD(P)H (Sigma-Aldrich, St. Louis, Mo.) absorbance was measured at 340 nm using Spectramax M5 Plus spectrophotometer (Molecular devices, Sunnyvale, Calif.). Xylose reductase was assayed in McIlvaine buffer at pH 7.2 (prepared by adding 16.5 ml of 0.2 M Na2HPO4 to 3.5 ml of 0.1 M citric acid (Sigma-Aldrich, St. Louis, Mo.)) containing 0.35 mM NADPH or NADH (as indicated) and an appropriate volume of sample (cell-free extract or purified protein) according to Viikari, L. and M. Korhola (1986), “Fructose metabolism in Zymomonas mobilis,” Applied Microbiology and Biotechnology 24(6): 471-476.
# (§3) Xylose concentration in the assay mixture is indicated in the text. For measuring the catalytic activity of xylose reductase towards other substrates, similar assay conditions were used. Km and Vmax were determined by varying the substrate concentrations in the assay mixture and fitting the data to Lineweaver-Burk equation: 1/v=(Km/Vmax) […]+1/Vmax. Xylitol concentration was determined enzymatically. The reaction was carried out with a total volume of 200 μl in 42 mM Tris-HCl buffer at pH 8.5, 5 mM NAD, 10 mM MgSO4 (Sigma-Aldrich, St. Louis, Mo.), 4 U/ml sorbitol dehydrogenase (Roche Diagnostics, Indianapolis, Ind.) and 10 μl of sample. Xylitol concentration was estimated based on the amount of NADH produced by xylitol containing samples compared to that produced by xylitol standards. SDS-PAGE and Coommassie blue staining were used to confirm the expression of ZMO0976 and mZMO0976 proteins. 15 μg of cell-free extract protein and 1 μg of purified protein were loaded on a 12% Tris-HCl gel (Bio-Rad, Hercules, Calif.). Cell growth was determined by measuring optical density (OD) at 600 nm using spectrophotometer (Beckman Coulter DU 530, Brea, Calif.).
# [2] = test system: Z. mobilis; details: cited from earlier work
# [3] = Reductase activity of purified ZMO0976/mZMO0976 towards furfural; type: biochemical; details: for Specific XR activity, Furfural (10 mM): purified protein, no unit in table, in mU/mg protein
# Method: (§4) E. coli cells were prepared for enzymatic assays using the procedure described in, for example, Akinterinwa, and Cirino, “Heterologous expression of D-xylulokinase from Pichia stipitis enables high levels of xylitol production by engineered Escherichia coli growing on xylose,” Metabolic Engineering 11(1): pp. 48-55. Briefly, cells were harvested by centrifugation at 5,000 g at 4° C. for 30 min. Cells were washed once with extraction buffer [10 mM Tris-HCl pH 7.5, 5 mM MgCl2, 1 mM dithothreitol (DTT) and 1 mM phenylmethylsulfonyl fluoride (PMSF) (Sigma-Aldrich, St. Louis, Mo.)]. Washed cell pellets were stored at −20° C. until use. Cell pellets were resuspended to an OD of 50 in equilibration buffer (50 mM Na2HPO4, 300 mM NaCl and 10 mM imidazole at pH 8 (Sigma-Aldrich, St. Louis, Mo.)) supplemented with 1 mM DTT and 1 mM PMSF, and sonicated (8 cycles of 10 s with 30 s cooling period). Cell debris was discarded after centrifugation at 16,000 g for 20 min at 4° C. Supernatant was used as cell-free extract (CFE) for enzymatic assays. Bradford Assay was used for estimation of protein concentration in the extract. His-tagged protein in the cell-free extract was purified at 4° C. using HIS-Select® HF Nickel Affinity Gel (Sigma-Aldrich, St. Louis, Mo.), which employs immobilized metal-ion affinity chromatography (IMAC). […]
# (§5) Cell-free extract for Z. mobilis was prepared as above except that extraction buffer was used for sonication and after which, cell debris were spun down at higher centrifugal force (53,300 g). […] NAD(P)H (Sigma-Aldrich, St. Louis, Mo.) absorbance was measured at 340 nm using Spectramax M5 Plus spectrophotometer (Molecular devices, Sunnyvale, Calif.). […]
# (§6) Xylose concentration in the assay mixture is indicated in the text. […] Km and Vmax were determined by varying the substrate concentrations in the assay mixture and fitting the data to Lineweaver-Burk equation: 1/v=(Km/Vmax) […]+1/Vmax. Xylitol concentration was determined enzymatically. […] Cell growth was determined by measuring optical density (OD) at 600 nm using spectrophotometer (Beckman Coulter DU 530, Brea, Calif.).
# [4] = Reductase activity of purified ZMO0976/mZMO0976 towards benzaldehyde; type: biochemical; details: for Specific XR activity, Benzaldehyde (2 mM): purified protein, no unit in table, in mU/mg protein
# Method: as §4, §5, §6
# [5] = Reductase activity of purified ZMO0976/mZMO0976 towards acetaldehyde; type: biochemical; details: for Specific XR activity, Acetaldehyde (520 mM): purified protein, no unit in table, in mU/mg protein
# Method: as §4, §5, §6
# [6] = NADPH-dependent xylose reductase (XR) activity of recombinant ZMO0976/mZMO0976, E. coli UT5600 cell-free extract and purified protein; type: biochemical; details: for XR activities of the purified proteins: His-tag purified protein, NADPH; for Xylose reductase activity: NADPH as cofactor, purified protein or cell-free extract (CFE) as named in label
# Method: as §1, §2
# as §3, with “Xylitol concentration was estimated based on the amount of NADH produced by xylitol containing samples compared to that produced by xylitol standards. SDS-PAGE and Coommassie blue staining were used to confirm the expression of ZMO0976 and mZMO0976 proteins. 15 μg of cell-free extract protein and 1 μg of purified protein were loaded on a 12% Tris-HCl gel (Bio-Rad, Hercules, Calif.).” left out
# [7] = substrate 260 mM; NADPH cofactor; benzaldehyde = 1
# [8] = 0.35 mM NADPH; Lineweaver-Burk fit
molecule,measurement,setting,value
CC=O [Acetaldehyde],Activity of ZMO0976 towards the substrate (in words),[1]; NADPH as cofactor,showed activity
same,Fold reduction in ZMO0976 activity with NADH as cofactor compared to NADPH,[1]; substrate 260 mM; 0.35 mM of either cofactor,53
same,Relative activity,[1]; [7],0.62
O=Cc1ccccc1 [Benzaldehyde],Affinity of ZMO0976 compared with xylose (in words),[1],one to two orders of magnitude higher
same,"Km, fold lower than xylose",[1],about 150 fold
same,Apparent Vmax,[1]; [8],7200 ± 200 mU/mg protein
same,Km,[1]; 0.35 mM NADPH; Lineweaver-Burk fit; read-out: Apparent Km,1.77 mM
same,Activity of ZMO0976 towards the substrate (in words),[1]; NADPH as cofactor,showed activity
same,Relative activity,[1]; substrate 2 mM; NADPH cofactor; benzaldehyde = 1,1
O=C(CO)[C@@H](O)[C@H](O)[C@H](O)CO [Fructose],Activity of ZMO0976 towards the substrate (in words),[1]; NADPH as cofactor,negligible activity
same,Relative activity,[1]; [7],0
O=Cc1ccco1 [Furfural],Affinity of ZMO0976 compared with xylose (in words),[1],one to two orders of magnitude higher
same,Apparent Vmax,[1]; [8],5000 ± 1300 mU/mg protein
same,Activity of ZMO0976 towards the substrate (in words),[1]; NADPH as cofactor,showed activity
same,Km,[1]; read-out: Apparent Km; 0.35 mM NADPH; Lineweaver-Burk fit,4.15 mM
same,Relative activity,[1]; substrate 5.2 mM; NADPH cofactor; benzaldehyde = 1,0.81
same,Fold reduction in ZMO0976 activity with NADH as cofactor compared to NADPH,[1]; substrate 10 mM; 0.35 mM of either cofactor,10
same,Concentration at which growth is completely inhibited,[2],52 mM
same,Concentration that reduces the growth rate of Z. mobilis by 25%,[2],7.3 mM
"O=Cc1ccc(CO)o1 [HMF, 5-hydroxymethylfurfural]",Activity of ZMO0976 towards the substrate (in words),[1]; NADPH as cofactor,showed activity
same,Relative activity,[1]; substrate 10 mM; NADPH cofactor; benzaldehyde = 1,0.11
same,Concentration at which growth is completely inhibited,[2],63 mM
same,Concentration that reduces the growth rate of Z. mobilis by 25%,[2],9.5 mM
B1,furfural reductase activity,[3],5470±60 mU/mg protein
same,"Specific XR activity, Furfural (10 mM)",[3],5470 ± 60
same,benzaldehyde reductase activity,[4],4030±250 mU/mg protein
same,"Specific XR activity, Benzaldehyde (2 mM)",[4],4030 ± 250
same,acetaldehyde reductase activity,[5],2500±400 mU/mg protein
same,"Specific XR activity, Acetaldehyde (520 mM)",[5],2500 ± 400
same,XR activities of the purified proteins,[6],3400 mU/mg
same,Xylose reductase activity,[6]; listed as Purified recombinant ZMO0976,3400 ± 200 mU/mg protein
same,Xylose reductase activity,[6]; listed as ZM00976,3400±200 mU/mg protein
B2,"Specific XR activity, Furfural (10 mM)",[3],180 ± 30
same,"Specific XR activity, Benzaldehyde (2 mM)",[4],40 ± 10
same,"Specific XR activity, Acetaldehyde (520 mM)",[5],170 ± 30
same,XR activities of the purified proteins,[6],140 mU/mg
same,Xylose reductase activity,[6],140 ± 50 mU/mg protein
